Entries after “also recorded” stand apart in the source; their conditions may differ.
Assays:
Format in all cases: cell-based, mice
[1] = system: dSPN glutamatergic synapses; test: Spike-timing-dependent LTD induction (post-pre pairing) in dSPNs, ex vivo corticostriatal slices, perforated-patch or whole-cell recording
Description: Male C57Bl/6 and FVB mice expressing tdTomato or eGFP under control of either the Drd1 or Drd2 receptor regulatory elements were used. All the mice used for the study were hemizygous for these transgenes. For some experiments, D1-tdTomato BAC mice were crossed with a transgenic line expressing Cre recombinase under control of the ChAT promoter. All mice were 8-10 weeks of age before stereotaxic surgery. Animal use procedures were reviewed and approved by the Northwestern Institutional Animal Care and Use Committee.
Slices were then transferred to a holding chamber containing aCSF. After an incubation period at 34° C. for 30 min, the slices were then kept in the holding chamber at the room temperature for another 30 min before use.
Individual slices were transferred to a recording chamber and were continuously perfused (2-3 ml min^−1) with aCSF for the duration of the experiment. Experiments were performed in the dorsolateral striatum at elevated temperature (30-31° C.).
All the recordings were made using a MultiClamp 700 A amplifier, and signals were filtered at 2 kHz and digitized at 10 kHz. Data were excluded when the series resistance changed >20% over the time course of the experiment. […] Capacitance current was continuously monitored during perforation by applying a 5-10 mV pulse from a holding potential of −70 mV. The amplifier bridge circuit was adjusted to compensate for series resistance and continuously monitored during recordings. Electrode capacitance was also compensated. Data were excluded when the input resistance (Ri) changed >20% over the time course of the experiment.
Data analysis was conducted with Igor Pro 6 (Wavemetrics, Lake Oswego, Oreg.) and Clampfit 9 (Molecular Devices). EPSP amplitude was calculated from 50-60 sweeps immediately before the start of induction and 20-30 min after the end of induction. The change in EPSP amplitude was calculated by averaging EPSP values after the induction and normalized to the average baseline EPSP amplitude. Compiled data were expressed as mean±s.e.m. Statistical tests were performed using Excel (Microsoft, Redmond, Wash.) and SigmaStat (Systat, San Jose, Calif.). Non-parametric Mann-Whitney or Wilcoxon tests were used to assess the experiment results, using a probability threshold of 0.05.
To determine if M4Rs were modulating synaptic plasticity, a spike-timing-dependent plasticity (STDP) paradigm was used. […] Once identified, neurons were monitored and controlled with perforated-patch recording to preserve intracellular signaling mechanisms and to allow stable, long-term monitoring of synaptic strength (FIG. 1A).
Synaptic plasticity was induced by pairing local stimulation of glutamatergic afferent fibers with postsynaptic spikes evoked by short bursts of intracellular current injection that were repeated at 5 Hz (FIGS. 1B, 4A).

[2] = system: NMDAR-mediated currents in dSPNs; test: NMDAR-mediated uEPSCs and EPSCs in dSPNs, whole-cell voltage clamp; conditions: for amplitude of NMDAR-mediated uEPSCs: muscarine and VU10010 5 μM in the presence of SKF81297, glutamate uncaging
Procedure: For whole-cell voltage clamp recordings, patch pipettes were loaded with internal recording solution containing (mM): 120 CsMeSO3, 15 CsCl, 8 NaCl, 10 HEPES, 0.2 EGTA, 10 tetraethylammonium Chloride (TEA-Cl), 5 QX-314, 2 Mg-ATP, 0.3 Na-GTP; pH was adjusted to 7.25 with CsOH and osmolarity to ˜305 mOsm l^−1. All the recordings were made using a MultiClamp 700 A amplifier, and signals were filtered at 2 kHz and digitized at 10 kHz. Data were excluded when the series resistance changed >20% over the time course of the experiment. For perforated patch recordings, the internal recording solution comprised (in mM): 125 KMeSO4, 14 KCl, 2 MgCl2, 0.2 EGTA, 10 HEPES; pH was adjusted to 7.25 with NaOH and osmolarity to ˜280 mOsm l^−1. Amphotericin B was used to achieve electrical access through the perforated-patch method (Shen et al., 2007; 2008; herein incorporated by reference in their entireties). Capacitance current was continuously monitored during perforation by applying a 5-10 mV pulse from a holding potential of −70 mV. The amplifier bridge circuit was adjusted to compensate for series resistance and continuously monitored during recordings. Electrode capacitance was also compensated. Data were excluded when the input resistance (Ri) changed >20% over the time course of the experiment.
Glutamate uncaging was achieved using a Verdi/Mira (Coherent Laser Group, Santa Clara, Calif.) (Plotkin et al., 2014). 5 mM MNI-glutamate was superfused over the slice at 0.4 ml/hr using a syring pump and multi-barreled perfusion manifold (Cell MicroControls, Norfolk, Va.). The perfusion solution was (in mM): 124 NaCl, 3 KCl, 2 CaCl2, 1 NaH2PO4, 26 HEPES and 16.66 glucose, and also contained (in μM): 3 muscarine, 10 serine, 10 NBQX and 10 gabazine, plus or minus: 3 SKF81297 and/or 5 VU10010). Glutamate was uncaged adjacent to individual spines using 1 ms pulses of 720-725 nm light typically 10-20 mW in power at the sample plane. Photolysis power was tuned via a third Pockels cell modulator (Con Optics, Danbury, Conn.) to achieve uEPSCs≤5 pA. uEPSC amplitudes were measured from averaged (3-5 repetitions) traces. All uncaging experiments were performed in 0 mM Mg^2+-containing solutions.
To determine the situation in dSPNs, the effect of muscarine and VU10010 on NMDAR-mediated EPSCs evoked by uncaging glutamate on spine heads (uEPSCs) was examined in the presence of SKF81297.

[3] = system: dSPN glutamatergic synapses; test: Depotentiation of established LTP by low-frequency stimulation (2 Hz, 10 min) in dSPNs; conditions: VU10010 5 μM
[4] = system: dSPN glutamatergic synapses; test: Spike-timing-dependent LTP induction (pre-post pairing) in dSPNs, ex vivo slices; conditions: VU10010 5 μM

## Cc1cc(C)c2c(N)c(C(=O)NCc3ccc(Cl)cc3)sc2n1 [VU10010]
[1]; VU10010 5 μM, no D1R antagonist, 20 repetitions of pairing
  LTD induction in dSPNs (EPSP amplitude): did not lead to LTD induction
[1]; VU10010 5 μM, no D1R antagonist, 60 repetitions of pairing
  LTD induction in dSPNs (EPSP amplitude): LTD induction was robust; also recorded: LTD was induced
[1]; physostigmine 10 μM co-applied with VU10010 5 μM, 20 repetitions
  LTD induction in dSPNs (EPSP amplitude): LTD was induced
[2]; muscarine 3 μM + VU10010 5 μM, local electrical stimulation
  muscarine modulation of NMDAR-mediated EPSCs: augmented
[2]
  amplitude of NMDAR-mediated uEPSCs: significantly reduced the amplitude
[2]; listed as VU 10010
  amplitude of NMDAR-mediated uEPSCs: suppressed NMDAR-mediated uEPSC currents
[3]; dyskinetic (LID) mice, no D1R antagonist
  depotentiation by LFS in dSPNs: restored depotentiation
[3]; naive mice
  depotentiation by LFS in dSPNs: Depotentiation also was achieved; also recorded: promoted the reversal of established LTP
[4]; dyskinetic (LID) mice
  STDP LTP induction in dSPNs: blocked the induction of STDP LTP; also recorded: LTP was disrupted
[4]; naive mice
  STDP LTP induction in dSPNs: disrupted STDP LTP induction; also recorded: LTP induction was also blocked

— patent US9987242B2, “Treatment of Levodopa-induced Dyskinesias” (NORTHWESTERN UNIVERSITY, priority 2015, dated 2018)
